From patent US20050165232A1, “Phenyl substituted imidaopyridines and phenyl substituted benzimidazoles” (priority 2002, published 2005)
One block for each molecule: values may come before it.

Legend:
adenosine A3 receptor = biological target: T1, adenosine A3 receptor (Rattus norvegicus, UniProt P28647); experiment: Rat adenosine A3 receptor binding assay; conditions: radioligand 125I AB-MECA, rat recombinant EBNA cells
T1 construct: expressed in transfected cells; host or cells: EBNA cells
T1 sequence (P28647 1-320): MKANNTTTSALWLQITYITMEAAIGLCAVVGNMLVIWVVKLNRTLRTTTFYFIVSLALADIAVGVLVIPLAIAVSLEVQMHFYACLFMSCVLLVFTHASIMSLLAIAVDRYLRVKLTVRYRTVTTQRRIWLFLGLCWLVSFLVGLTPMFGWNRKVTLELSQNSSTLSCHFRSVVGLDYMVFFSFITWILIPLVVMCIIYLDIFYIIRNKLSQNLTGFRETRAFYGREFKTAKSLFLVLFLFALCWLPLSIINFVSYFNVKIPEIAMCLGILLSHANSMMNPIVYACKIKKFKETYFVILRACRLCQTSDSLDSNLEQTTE
Protocol: Adenosine A3 radioligand binding was performed as follows. Rat recombinant EBNA cells were used with 1 nM ^125I AB-MECA as ligand.

adenosine A1 = biological target: T2, adenosine A1 (Rattus norvegicus, UniProt P25099); experiment: Rat adenosine A1 tissue assay (vas deferens); design: species or system Wistar rat
T2 construct: Wistar rat (ca. 275 g) vas deferens were used; from tissue; host or cells: Wistar rat vas deferens
T2 sequence (P25099 1-326): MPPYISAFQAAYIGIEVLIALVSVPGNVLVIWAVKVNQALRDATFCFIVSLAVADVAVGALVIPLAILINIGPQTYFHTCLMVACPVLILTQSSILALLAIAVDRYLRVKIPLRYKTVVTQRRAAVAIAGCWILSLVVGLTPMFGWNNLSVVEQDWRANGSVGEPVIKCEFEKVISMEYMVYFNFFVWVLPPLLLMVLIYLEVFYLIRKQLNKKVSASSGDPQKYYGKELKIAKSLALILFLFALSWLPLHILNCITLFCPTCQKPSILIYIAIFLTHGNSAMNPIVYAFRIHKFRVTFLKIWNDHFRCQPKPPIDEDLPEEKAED
Protocol: An adenosine A1 tissue assay was performed as follows to determine antagonist versus agonist functional activity. […] The vehicle used was 0.1% DMSO, the incubation buffer used was Krebs at pH 7.4, and the incubation time was 5 min at 32° C. The administration volume was 10 μL, the bath volume was 10 mL, and the time of assessment was 5 min using an isometric (gram changes) quantitation method. The criteria for functional agonism was a ≧50% reduction of neurogenic twitch relative to CHA response. The criteria for functional antagonism was a ≧50% inhibition of CHA-induced relaxation.

Kd (adenosine A3 receptor): 1.3 nM
SMILES: CNC(=O)[C@H]1O[C@@H](n2cnc3c(NCc4ccc(N)cc4)ncnc32)[C@H](O)[C@@H]1O [AB-MECA]

antagonist reference response (adenosine A1; 10 nM): 87%
SMILES: CCCn1c(=O)c2[nH]c(C3CCCC3)nc2n(CCC)c1=O [DPCPX, 8-cyclopentyl-1,3-dipropylxanthine]

agonist reference response (adenosine A1; 0.3 μM): 100%
SMILES: OC[C@H]1O[C@@H](n2cnc3c(NC4CCCCC4)ncnc32)[C@H](O)[C@@H]1O [CHA, N6-(cyclohexyl)adenosine]
